Legend:
[1] = system: plasma fibrinogen in arthritis model; assay: Adjuvant arthritis test: inhibition of adjuvant-elevated plasma fibrinogen in rats; type: in vivo, Male Sprague Dawley rats; conditions: rat
[2] = system: ear edema caused by oxazolone; assay: Inhibition of Ear Edema Caused by Oxazolone; type: in vivo, CF-1 mice; conditions: mouse, 24 hours
Protocol: CF-1 mice, 25-30 g body weight, six animals per group were used. The mice were sensitized to the irritant two weeks prior to the test by dribbling 100 μL of a 3% solution of oxazolone in acetone onto the scrotum of the animal. Test compounds were administered orally at doses of 100 mg/kg and 300 mg/kg for 1 hour prior to oxazolone, intraperitoneally as follows: The test compound was dissolved in dimethyl sulfoxide and doses of 10 mg/kg, 30 mg/kg, and 100 mg/kg were injected 15 mintures prior to irritant. The irritant, 3% oxazolone in acetone, was added to the surface of the ear, 5 μL added to the upper surface and 5 μL added to the lower surface. After twenty four hours the thickness of the ear was measured to 0.01 mm by a micrometer with loose drag, positioned at the lateral-most edge of the mid-point of the pinna. Data were calculated as the inhibition of increased ear thickness compared to control animals' receiving only the irritant. In general, % inhibition of greater than 20% is statistically significant (p<0.05 or less, Student's t-test for unpaired data).

[3] = system: reverse passive Arthus reaction (blueing by antigen and antibody); assay: Reverse Passive Arthus Reaction (RPA); type: in vivo, Male SD rats; conditions: rat
Protocol: Male SD rats weighing between 200 and 300 g were used. Test compounds were dissolved in dimethyl sulfoxide and 1 ml/kg of this stock solution (100 mg/ml), on serial dilutions were injected intraperitoneally one hour before administration of the antigen or given orally. The animals were anesthetized inhalationally with isoflurane and then injected through the penile vein with 1 ml of a solution of 2.5 mg of Evan's blue dye and 5.0 mg of human serum albumin in 1 ml of saline. This treatment was followed immediately by intracutaneous injections of 0.075 ml of anti-human albumin diluated to contain 4.38 mg/ml of antibody at 2 sites opposite the midline back. Anesthesia was terminated and after three hours, the animals were sacrificed. The skin was removed and the blue stained areas cut out. The skin patches were soaked overnight in stoppered tubes containing 2 ml of 1N potassium hydroxide at 5° C. Then 9 ml of a mixture of five parts of a 1.2N phosphoric acid and thirteen parts of acetone were added to the tubes. The tube contents were agitated and centrifuged, and the absorbance measured at 620 nm. The data were calculated as inhibition of blueing by test compound compared to control animals receiving only antigen and antibody.

Compound	AA (i.p.) % inhibition at 100 mg/kg (inhibited plasma fibrinogen in arthritis model) ([1]; 100 mg/kg) [%]	AA (p.o.) % inhibition at 100 mg/kg (inhibited plasma fibrinogen in arthritis model) ([1]; 100 mg/kg) [%]	RPA (p.o.) 100 mg/kg inhibition [3] [%]	other results
O=C(Nc1ccc(C(=O)O)cc1)OCCC1c2ccccc2-c2ccccc21 [Example 7, N-[9H-(Fluorenyl-9-ethoxycarbonyl)]amino-4-benzoic acid]	63	39	25	Plasma fibrinogen level, drug by itself ([1]; 100 mg/kg p.o., n=5, without adjuvant, basal 2.44±0.08 mg/ml): 4.8 ± 0.6 mg/mL; Maximum inhibition of plasma fibrinogen ([1]; given orally, maximum achieved at 3 mg/kg): 50%; Inhibition of increased ear thickness ([2]; i.p., 10 mg/kg): 46%; Inhibition of increased ear thickness ([2]; i.p., 30 mg/kg): 82%; Inhibition of increased ear thickness ([2]; i.p., 100 mg/kg): 79%; Inhibition of increased ear thickness ([2]; orally, dose of this value not stated (100 and 300 mg/kg in method)): 50%
Cc1ccc2c(c1)C(CCOC(=O)Nc1ccc(C(=O)O)cc1)c1cc(C)ccc1-2 [Example 8, N-[9H-(2,7-Dimethylfluorenyl-9-ethoxycarbonyl)]amino-4-benzoic acid]	69	48	0	–
O=C(Nc1ccc(C(=O)O)cc1)OCCC1c2cc(Cl)ccc2-c2ccc(Cl)cc21 [Example 9]	78	38	54	–
O=C(CCC1c2ccccc2-c2ccccc21)Nc1ccccc1C(=O)O [Example 14, N-[3-(9-Fluorenyl)propionyl]anthranilic acid]	–	–	–	Inhibition of plasma fibrinogen levels ([1]; 10 mg/kg): 22%; Inhibition of plasma fibrinogen levels ([1]; 30 mg/kg): 19%; Inhibition of plasma fibrinogen levels ([1]; 100 mg/kg): 51%
O=C(Nc1ccc(C(=O)O)cc1)OCCCC1c2ccccc2-c2ccccc21 [Example 23, 4-[3-(9H-Fluoren-9-yl)propoxycarbonyl]-aminobenzoic acid]	–	–	1	–
O=C(CCCC1c2ccccc2-c2ccccc21)Nc1ccc(C(=O)O)cc1 [Example 25, 4-[9H-(Fluoren-9-yl)]butyric acid-4-carboxyanilide]	–	15	0	–
O=C(Nc1ccc(C(=O)O)cc1)SCCC1c2ccccc2-c2ccccc21 [Example 26, N-[2-(9H-Fluoren-9-yl)ethylthioxycarbonyl]-4-aminobenzoic acid]	70	56	–	–
O=C(Nc1ccc(C(=O)O)cc1)SCCC1c2cc(Cl)ccc2-c2ccc(Cl)cc21 [Example 27]	54	52	–	–
O=C(Nc1ccc(C(=O)O)cc1)SCCC1c2cc(Br)ccc2-c2ccc(Br)cc21 [Example 28]	72	41	1	–

— patent publication US5519043A, “Fluorenyl derivatives” (Scios Nova Inc., priority 1993, dated 1996)
